Source: PMC3657749 (Journal of medicinal chemistry, 2013)
One block for each compound: values may come before it.

How the values were obtained:
HDAC 6 = biological target: T1, HDAC 6 (Homo sapiens, UniProt Q9UBN7); assay: HDAC inhibition by SAMDI mass spectrometry, HDAC 6; format: biochemical; settings: maximum tested concentration 10 μM
T1 sequence (Q9UBN7 1-1215): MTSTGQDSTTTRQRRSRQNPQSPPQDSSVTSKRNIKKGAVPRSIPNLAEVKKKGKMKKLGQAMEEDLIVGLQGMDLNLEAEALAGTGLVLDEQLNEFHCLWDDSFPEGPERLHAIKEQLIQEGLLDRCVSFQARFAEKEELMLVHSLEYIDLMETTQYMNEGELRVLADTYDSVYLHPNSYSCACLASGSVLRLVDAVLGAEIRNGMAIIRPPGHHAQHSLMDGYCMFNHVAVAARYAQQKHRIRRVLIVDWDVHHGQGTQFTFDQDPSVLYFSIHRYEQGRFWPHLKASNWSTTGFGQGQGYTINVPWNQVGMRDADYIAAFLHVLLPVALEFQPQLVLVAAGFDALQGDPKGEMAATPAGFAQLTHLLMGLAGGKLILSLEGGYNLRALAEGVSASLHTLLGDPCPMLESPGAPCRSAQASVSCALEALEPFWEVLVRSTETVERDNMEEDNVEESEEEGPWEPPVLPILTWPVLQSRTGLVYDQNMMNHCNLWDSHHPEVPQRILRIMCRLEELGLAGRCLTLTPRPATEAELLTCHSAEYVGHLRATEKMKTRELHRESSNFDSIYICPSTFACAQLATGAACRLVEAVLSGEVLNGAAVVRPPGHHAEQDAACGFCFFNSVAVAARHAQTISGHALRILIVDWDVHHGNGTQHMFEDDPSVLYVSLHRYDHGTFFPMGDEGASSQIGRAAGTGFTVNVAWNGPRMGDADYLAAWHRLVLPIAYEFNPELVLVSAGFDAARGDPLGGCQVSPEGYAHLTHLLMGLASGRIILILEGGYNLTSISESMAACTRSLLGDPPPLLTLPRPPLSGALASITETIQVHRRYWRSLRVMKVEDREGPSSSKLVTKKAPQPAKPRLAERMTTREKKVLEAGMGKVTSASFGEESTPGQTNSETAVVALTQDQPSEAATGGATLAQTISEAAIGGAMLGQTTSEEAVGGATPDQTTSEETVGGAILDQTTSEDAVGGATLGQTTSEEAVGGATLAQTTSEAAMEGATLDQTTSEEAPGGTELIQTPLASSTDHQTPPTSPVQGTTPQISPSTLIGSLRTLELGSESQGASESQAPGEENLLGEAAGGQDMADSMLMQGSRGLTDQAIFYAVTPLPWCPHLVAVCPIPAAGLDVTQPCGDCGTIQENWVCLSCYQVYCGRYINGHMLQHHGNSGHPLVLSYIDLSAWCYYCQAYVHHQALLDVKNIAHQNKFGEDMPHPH

HDAC 8 = biological target: T2, HDAC 8 (Homo sapiens, UniProt Q9BY41); assay: HDAC inhibition by SAMDI mass spectrometry, HDAC 8; format: biochemical; settings: for HDAC 8 inhibition relative to 7c: fold more active than 7c; for HDAC 8 inhibition (result in words): SAMDI, maximum tested concentration 10 μM
T2 sequence (Q9BY41 1-377): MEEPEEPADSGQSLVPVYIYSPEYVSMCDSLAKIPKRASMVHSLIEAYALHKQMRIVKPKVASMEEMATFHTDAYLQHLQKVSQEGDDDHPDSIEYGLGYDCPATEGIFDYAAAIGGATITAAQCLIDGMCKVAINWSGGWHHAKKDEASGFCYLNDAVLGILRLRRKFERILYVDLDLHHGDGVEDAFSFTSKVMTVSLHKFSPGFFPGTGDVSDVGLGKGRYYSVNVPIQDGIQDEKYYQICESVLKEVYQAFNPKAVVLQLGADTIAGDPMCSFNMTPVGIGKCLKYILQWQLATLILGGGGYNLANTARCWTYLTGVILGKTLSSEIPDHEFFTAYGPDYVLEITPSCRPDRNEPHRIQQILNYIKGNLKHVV

[1] = tested on: Jurkat J.gamma1 (mutant Jurkat cell line, no detectable PLCγ1 activity); assay: Cell viability assay; format: cell-based; settings: for IC50: Homo sapiens, Jurkat, 72 h, read-out: Cellular IC50(μM) Jurkat J.gammal
HDAC 1 = HDAC 1 (Homo sapiens, UniProt Q13547); assay: HDAC inhibition by SAMDI mass spectrometry, HDAC 1; format: biochemical; settings: maximum tested concentration 10 μM
Sequence of HDAC 1 (Q13547 whole entry): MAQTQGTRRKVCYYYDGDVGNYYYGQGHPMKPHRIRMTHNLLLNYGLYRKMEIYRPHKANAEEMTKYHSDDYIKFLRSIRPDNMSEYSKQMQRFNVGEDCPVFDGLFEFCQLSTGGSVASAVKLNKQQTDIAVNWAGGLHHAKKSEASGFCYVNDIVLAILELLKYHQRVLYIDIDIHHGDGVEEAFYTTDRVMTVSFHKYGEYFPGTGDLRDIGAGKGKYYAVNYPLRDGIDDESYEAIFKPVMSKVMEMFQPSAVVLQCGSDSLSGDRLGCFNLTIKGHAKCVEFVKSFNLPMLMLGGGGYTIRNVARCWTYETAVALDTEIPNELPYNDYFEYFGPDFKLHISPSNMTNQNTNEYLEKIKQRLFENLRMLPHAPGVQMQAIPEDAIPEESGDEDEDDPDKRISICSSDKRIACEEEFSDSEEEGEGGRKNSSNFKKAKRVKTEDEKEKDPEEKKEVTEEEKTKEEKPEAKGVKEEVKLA

[2] = tested on: DU-145 (androgen independent prostate cancer); assay: Cell viability assay; format: cell-based; settings: for DU-145 anti-proliferative activity (result in words): highest tested concentration 20 μM
[3] = tested on: tubulin acetylation (HDAC6 inhibition) in LNCaP cell line; assay: Western blot analysis of tubulin acetylation; format: cell-based; settings: LNCaP cells, 4 hours, at IC50 concentration and at 20 μM
[4] = tested on: LNCaP (androgen dependent prostate cancer); assay: Cell viability assay; format: cell-based
[5] = tested on: T-cell leukemia cell line Jurkat; assay: Cell viability assay; format: cell-based
Jurkat J.gamma1 = settings: mutant Jurkat cell line without detectable PLCγ1 activity; cited from earlier work

Structure (SMILES): CN(C)c1ccc(-c2ccc(Cn3cccc(O)c3=S)cc2)cc1 [Compound 12g, 1-(4-Dimethylamino-(1,1'-biphenylmethyl))-3-hydroxyoxypyridin-2-thione]
HDAC 6 inhibition (result in words) (HDAC 6): loss of HDAC 6 inhibition
HDAC 8 inhibition relative to 7c (HDAC 8): about 2 fold
Jurkat J.gamma1 anti-proliferative activity (result in words) [1]: devoid of anti-proliferative activity
IC50 [1]: > 20 µM

Structure (SMILES): O=c1c(O)cccn1Cc1ccccc1 [Compound 5b, 1-Benzyl-3-hydroxypyridin-2-one]
HDAC 1 inhibition (result in words) (HDAC 1): failed to inhibit
HDAC 6 inhibition (result in words) (HDAC 6): failed to inhibit
HDAC 8 inhibition (result in words) (HDAC 8): failed to inhibit

Structure (SMILES): Cc1ccccc1-c1ccc(Cn2cccc(O)c2=S)cc1 [Compound 12f, 1-(2-Methyl-(1,1'-biphenylmethyl))-3-hydroxyoxypyridin-2-thione]
DU-145 anti-proliferative activity (result in words) [2]: weak activity
Jurkat J.gamma1 anti-proliferative activity (result in words) [1]: non-cytotoxic
IC50 [1]: > 20 µM
tubulin acetylation (Western blot) [3]: increase in tubulin acetylation

Structure (SMILES): O=c1c(O)cccn1Cc1ccc(-c2ccccc2)cc1 [Compound 5c, 1-(1,1'-Biphenylmethyl)-3-hydroxypyridin-2-one]
HDAC 1 inhibition (result in words) (HDAC 1): failed to inhibit
HDAC 6 inhibition (result in words) (HDAC 6): failed to inhibit
HDAC 8 inhibition (result in words) (HDAC 8): failed to inhibit

Structure (SMILES): Oc1cccn(Cc2ccc(-c3ccccc3)cc2)c1=S [Compound 7c, 1-(1,1'-Biphenylmethyl)-3-hydroxypyridin-2-thione]
HDAC 1 inhibition (result in words) (HDAC 1): neither 7b nor 7c possess any measurable activity

Structure (SMILES): Cn1cccc(O)c1=O [Compound 5a, 1-Methyl-3-hydroxypyridin-2-one]
HDAC 1 inhibition (result in words) (HDAC 1): failed to inhibit
HDAC 6 inhibition (result in words) (HDAC 6): failed to inhibit
HDAC 8 inhibition (result in words) (HDAC 8): failed to inhibit

Structure (SMILES): Oc1ccc[nH]c1=S [Compound 3-HPT, 3-hydroxypyridin-2-thione]
HDAC 1 inhibition (result in words) (HDAC 1): no inhibition
IC50 ([2]; Homo sapiens, DU-145, read-out: Cellular IC50(μM) DU-145): > 20 µM
DU-145 anti-proliferative activity (result in words) [2]: inactive
LNCaP anti-proliferative activity (result in words) [4]: inactive
IC50 ([4]; Homo sapiens, LNCaP, read-out: Cellular IC50(μM) LNCaP): > 20 µM
Jurkat anti-proliferative activity (result in words) [5]: inactive
IC50 ([5]; Homo sapiens, Jurkat, 72 h, read-out: Cellular IC50(μM) Jurkat): > 20 µM

Structure (SMILES): Oc1cccn(Cc2ccccc2)c1=S [Compound 7b, 1-Benzyl-3-hydroxypyridin-2-thione]
HDAC 1 inhibition (result in words) (HDAC 1): neither 7b nor 7c possess any measurable activity

Structure (SMILES): Oc1cccn(Cc2cn(-c3ccccc3)nn2)c1=S [Compound 17a, 1-Phenyltriazolylmethyl-3-hydroxypyridin-2-thione]
HDAC 6 inhibition (result in words) (HDAC 6): only marginally inhibitory
HDAC 8 inhibition relative to 7c (HDAC 8): 2 to 3 fold
Jurkat J.gamma1 anti-proliferative activity (result in words) [1]: devoid of anti-proliferative activity
IC50 [1]: > 20 µM

Structure (SMILES): O=C(CCCCCCC(=O)Nc1ccccc1)NO [SAHA, suberoylanilide hydroxamic acid, reference compound]
Jurkat J.gamma1 anti-proliferative activity (result in words) [1]: non-cytotoxic
tubulin acetylation (Western blot) [3]: concentration dependent tubulin hyperacetylation

Structure (SMILES): COc1ccc(Cn2ccc3ccc(C(=O)NO)cc32)cc1 [PCI-34051]
apoptosis induction in Jurkat J.gamma1 (Jurkat J.gamma1): lost its ability to induce apoptosis

Results, then the compound that gave them:

HDAC 8 inhibition relative to 7c (HDAC 8): about 2 fold
Structure (SMILES): N#Cc1ccc(-c2ccc(Cn3cccc(O)c3=S)cc2)cc1 [Compound 12a, 1-(4-Cyano-(1,1'-biphenylmethyl))-3-hydroxyoxypyridin-2-thione]

HDAC 6 inhibition (result in words) (HDAC 6): abrogation of HDAC 6 inhibition
Structure (SMILES): N#Cc1cccc(-c2ccc(Cn3cccc(O)c3=S)cc2)c1 [Compound 12b, 1-(3-Cyano-(1,1'-biphenylmethyl))-3-hydroxyoxypyridin-2-thione]

HDAC 1 inhibition (result in words) (HDAC 1): inactive
HDAC 6 inhibition (result in words) (HDAC 6): inactive
HDAC 8 inhibition (result in words) (HDAC 8): inactive
Structure (SMILES): O=c1c(O)cccn1Cc1cn(-c2ccccc2)nn1 [Compound 15a, 1-Phenyltriazolylmethyl-3-hydroxypyridin-2-one]

HDAC 8 inhibition (result in words) (HDAC 8): loss of HDAC 8 inhibition
Structure (SMILES): CN(C)c1ccc(-c2ccc(Cn3cccc(O)c3=S)cc2)cn1 [Compound 12h]
